Source: ChEMBL document CHEMBL5360584, “Sequence-Specific Dual DNA Binding Modes and Cytotoxicities of N-6-Functionalized Norcryptotackieine Alkaloids” (J Nat Prod, 2023)
Active and inactive are the calls of the source. The rule behind the calls is not given here.

Experiments:
[1] = system: Calf thymus DNA; experiment: Binding affinity to calf thymus DNA assessed as change in absorption by UV-Vis spectrophotometric analysis; type: nucleic-acid assay; settings: Bos taurus
[2] = system: Calf thymus DNA; experiment: Binding affinity to calf thymus DNA assessed as dissociation constant by UV-Vis spectroscopic analysis; type: nucleic-acid assay, Bos taurus
[3] = system: Calf thymus DNA; experiment: Binding affinity to calf thymus DNA assessed as dissociation constant measured at 332 nm absorbance by UV-Vis spectroscopic analysis; type: nucleic-acid assay, Bos taurus
[4] = system: Calf thymus DNA; experiment: Binding affinity to calf thymus DNA assessed as dissociation constant by reverse titration method; type: nucleic-acid assay, Bos taurus
[5] = system: Calf thymus DNA; experiment: Binding affinity to calf thymus DNA assessed as dissociation constant measured at 337 nm absorbance by UV-Vis spectroscopic analysis; type: nucleic-acid assay, Bos taurus
[6] = system: SK-OV-3; experiment: Cytotoxicity against human SK-OV-3 cells assessed as reduction in cell viability incubated for 24 hrs by MTT assay; type: functional, cell-based; settings: SK-OV-3, 24 h
[7] = system: HeLa; experiment: Cytotoxicity against human HeLa cells assessed as reduction in cell viability incubated for 24 hrs by MTT assay; type: functional, cell-based
[8] = system: HEK293; experiment: Cytotoxicity against human HEK293 cells assessed as reduction in cell viability incubated for 24 hrs by MTT assay; type: functional, cell-based; settings: HEK293, 24 h
[9] = system: B16-F10; experiment: Cytotoxicity against mouse B16F10 cells assessed as reduction in cell viability incubated for 24 hrs by MTT assay; type: functional, cell-based; settings: B16-F10, 24 h
[10] = system: OVCAR-3; experiment: Cytotoxicity against human OVCAR-3 cells assessed as reduction in cell viability incubated for 24 hrs by MTT assay; type: functional, cell-based; settings: OVCAR-3, 24 h
[11] = system: Calf thymus DNA; experiment: Binding affinity to calf thymus DNA assessed as dissociation constant; type: nucleic-acid assay, Bos taurus

SMILES: c1ccc2nc3c(cc2c1)c1ccccc1n3CCCN1CCCC1
- Activity [1]: Active

SMILES: CN(C)CCCn1c2ccccc2c2cc3ccccc3nc21
- Kd [2]: 20 µM
- Kd [3]: 10 µM
- Activity [1]: Active
- Kd [4]: 17 µM
- Kd [5]: 120 µM

SMILES: CN(CCCn1c2ccccc2c2cc3ccccc3nc21)CCCn1c2ccccc2c2cc3ccccc3nc21
- Activity [1]: Active

SMILES: c1ccc(Cn2c3ccccc3c3cc4ccccc4nc32)cc1
- Activity [1]: Active

SMILES: c1ccc(-n2c3ccccc3c3cc4ccccc4nc32)cc1
- Activity [1]: Active

SMILES: Cn1c2ccccc2c2cc3ccccc3nc21
- IC50 [6]: > 100 µM
- Activity [1]: Active
- IC50 [7]: > 100 µM
- IC50 [8]: > 100 µM
- IC50 [9]: > 100 µM
- IC50 [10]: > 100 µM

SMILES: CN1CCN(CCCn2c3ccccc3c3cc4ccccc4nc32)CC1
- Activity [1]: Active

SMILES: c1ccc2nc3c(cc2c1)c1ccccc1n3CCCn1ccnc1
- Activity [1]: Active

SMILES: CN(C)CCn1c2ccccc2c2cc3ccccc3nc21
- Activity [1]: Active

SMILES: C[n+]1c2ccccc2cc2[n-]c3ccccc3c21 [CRYPTOLEPINE]
- Kd [2]: 0.24 µM
- Kd [11]: 0.33 µM

SMILES: c1ccc2[nH]c3nc4ccccc4c-3cc2c1
- IC50 [6]: > 100 µM
- Activity [1]: Active
- IC50 [7]: > 100 µM
- IC50 [8]: > 100 µM
- IC50 [9]: > 100 µM
- IC50 [10]: > 100 µM

SMILES: c1ccc2nc3c(cc2c1)c1ccccc1n3CCCN1CCOCC1
- Activity [1]: Active

SMILES: CN(C)CCCCn1c2ccccc2c2cc3ccccc3nc21
- Activity [1]: Active

SMILES: CCCCn1c2ccccc2c2cc3ccccc3nc21
- Activity [1]: Active
